Earlier results as cited in patent US8168224B2, “Sodium alginate microsphere vascular embolus containing water-soluble drug and preparation and application thereof” (Beijing Shengyiyao Science & Technology Development Co., …, priority 2007, dated 2012).

What was measured:
[1] = system: human ovary cancer strain 3AO; details: 3AO cells in vitro, compared with cisplatin (cDDP)
[2] = system: human ovary cancer cell strain SKOV3; details: As2O3 within normal clinical dosage range; radiation in routine graded dosages
[3] = system: HUVECs
[4] = system: human liver cancer cell strain HepG2; details: combination with TNF
[5] = system: angiogenesis in CAM
[6] = system: acute non-APL (ANPL); details: versus Ara-C, Homoharringtonine, VCR and DNR
[7] = system: rabbit Vx2 hepatic transplantation carcinoma; details: hepatic artery catheter perfusion; dose dependent
[8] = system: K562 and K562/ADM; details: dosage-time effect
[9] = system: primary liver cancer; details: 20 mg/d for 5 consecutive days

In the case of Arsenic trioxide [As2O3], the “growth inhibition, apoptosis induction and S phase block compared with cDDP” value [1] is listed as “more effective in inhibiting growth, inducing apoptosis and blocking S phase of 3AO”, the radiation enhancement [2] is listed as “enhance effect of the radiation therapy” and the “growth of HUVECs” value [3] is listed as “inhibit growth of HUVECs”. The “combination effect on inducing apoptosis” value [4] was “synergistic”, the angiogenesis [5] was “inhibit angiogenesis” and the cross drug resistance [6] was “free from cross drug resistance with Ara-C, Homoharringtonine and VCR, but partly has cross drug resistance with DNR”. The “inhibition of rabbit Vx2 hepatic transplantation carcinoma” value [7] was “significantly effective in treating tumors”, the “expression of Bcl-2 protein” value [8] was “inhibit expression of Bcl-2 protein of K562 and K562/ADM” and the side effects ([9]; 4 courses, local pump administration) was “No explicit side effects”. For the same substance, the “PR (lesions shrank by 50% plus, no new lesions)” value ([9]; 17 patients unsuitable for surgery, after 4 therapeutic courses) was 35.2% and the overall effectiveness rate ([9]; 17 patients, after 4 therapeutic courses) was 41.1%.
